Data from ChEMBL document CHEMBL2406991, “A novel series of metabotropic glutamate receptor 5 negative allosteric modulators based on a 4,5,6,7-tetrahydropyrazolo[1,5-a]pyridine core” (Bioorg Med Chem Lett, 2013).
≈ marks a conversion by molar mass, not a printed value. Blank lines part the entries; values can stand above or below the compound they belong to.

Legend:
[1] = target: Metabotropic glutamate receptor 5 (Rattus norvegicus, UniProt P31424); assay: Negative allosteric modulation of rat mGluR5 receptor expressed in HEK293 cells assessed as intracellular calcium flux after 170 seconds by FLIPR assay; assay type: functional, cell-based
Metabotropic glutamate receptor 5, sequence (P31424 whole entry): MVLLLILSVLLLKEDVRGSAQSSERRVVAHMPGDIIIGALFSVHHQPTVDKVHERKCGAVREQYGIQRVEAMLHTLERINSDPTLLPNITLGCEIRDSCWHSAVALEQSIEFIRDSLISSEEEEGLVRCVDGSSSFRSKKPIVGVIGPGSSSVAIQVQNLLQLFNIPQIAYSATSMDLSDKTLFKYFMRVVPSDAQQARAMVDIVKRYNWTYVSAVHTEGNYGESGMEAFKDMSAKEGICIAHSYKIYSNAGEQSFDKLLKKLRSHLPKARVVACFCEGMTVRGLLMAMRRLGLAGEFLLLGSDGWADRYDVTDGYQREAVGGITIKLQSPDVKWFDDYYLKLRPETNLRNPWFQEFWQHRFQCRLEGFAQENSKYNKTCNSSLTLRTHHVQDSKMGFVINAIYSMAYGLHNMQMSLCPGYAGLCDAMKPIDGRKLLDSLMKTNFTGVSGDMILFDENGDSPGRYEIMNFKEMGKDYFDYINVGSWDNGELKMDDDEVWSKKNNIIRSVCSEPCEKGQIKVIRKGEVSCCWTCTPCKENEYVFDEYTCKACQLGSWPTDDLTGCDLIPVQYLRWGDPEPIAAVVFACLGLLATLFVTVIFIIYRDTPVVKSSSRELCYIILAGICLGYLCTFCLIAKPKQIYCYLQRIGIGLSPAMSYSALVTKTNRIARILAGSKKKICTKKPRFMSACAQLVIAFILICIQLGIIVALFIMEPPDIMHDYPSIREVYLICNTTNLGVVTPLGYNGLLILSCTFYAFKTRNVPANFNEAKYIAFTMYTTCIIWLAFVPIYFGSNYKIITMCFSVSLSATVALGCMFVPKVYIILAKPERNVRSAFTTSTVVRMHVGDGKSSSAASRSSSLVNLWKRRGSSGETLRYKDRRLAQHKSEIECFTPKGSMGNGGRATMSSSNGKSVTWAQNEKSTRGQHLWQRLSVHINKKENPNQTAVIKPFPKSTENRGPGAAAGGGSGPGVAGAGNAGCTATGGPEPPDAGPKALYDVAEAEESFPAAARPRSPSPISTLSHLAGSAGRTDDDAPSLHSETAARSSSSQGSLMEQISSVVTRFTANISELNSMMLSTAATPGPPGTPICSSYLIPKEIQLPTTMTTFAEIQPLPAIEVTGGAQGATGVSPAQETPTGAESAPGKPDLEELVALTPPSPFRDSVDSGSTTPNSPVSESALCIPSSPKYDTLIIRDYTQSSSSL

[2] = target: Cytochrome P450 3A4 (Homo sapiens, UniProt P08684); assay: Inhibition of CYP3A4 (unknown origin); assay type: ADME
Cytochrome P450 3A4, sequence (P08684 whole entry): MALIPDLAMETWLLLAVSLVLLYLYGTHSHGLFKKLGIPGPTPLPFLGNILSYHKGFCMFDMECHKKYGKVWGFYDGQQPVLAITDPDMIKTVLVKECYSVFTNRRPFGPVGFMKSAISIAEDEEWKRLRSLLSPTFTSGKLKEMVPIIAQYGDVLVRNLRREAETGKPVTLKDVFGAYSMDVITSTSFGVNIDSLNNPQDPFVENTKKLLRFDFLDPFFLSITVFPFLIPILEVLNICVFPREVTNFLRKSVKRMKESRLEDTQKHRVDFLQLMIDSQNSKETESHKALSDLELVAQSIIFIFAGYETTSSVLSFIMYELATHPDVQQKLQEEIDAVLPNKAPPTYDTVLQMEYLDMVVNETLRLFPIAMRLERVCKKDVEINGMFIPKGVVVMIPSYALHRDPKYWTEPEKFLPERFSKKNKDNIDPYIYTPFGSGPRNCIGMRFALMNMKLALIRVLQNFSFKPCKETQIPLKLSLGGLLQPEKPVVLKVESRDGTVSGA

[3] = target: Metabotropic glutamate receptor 5 (Rattus norvegicus) (UniProt P31424); assay: Inhibition of rat mGluR5 receptor expressed in HEK293 cells at 30 uM relative to control; assay type: cell-based
Metabotropic glutamate receptor 5 (Rattus norvegicus), sequence (P31424 21-1203 limits assumed): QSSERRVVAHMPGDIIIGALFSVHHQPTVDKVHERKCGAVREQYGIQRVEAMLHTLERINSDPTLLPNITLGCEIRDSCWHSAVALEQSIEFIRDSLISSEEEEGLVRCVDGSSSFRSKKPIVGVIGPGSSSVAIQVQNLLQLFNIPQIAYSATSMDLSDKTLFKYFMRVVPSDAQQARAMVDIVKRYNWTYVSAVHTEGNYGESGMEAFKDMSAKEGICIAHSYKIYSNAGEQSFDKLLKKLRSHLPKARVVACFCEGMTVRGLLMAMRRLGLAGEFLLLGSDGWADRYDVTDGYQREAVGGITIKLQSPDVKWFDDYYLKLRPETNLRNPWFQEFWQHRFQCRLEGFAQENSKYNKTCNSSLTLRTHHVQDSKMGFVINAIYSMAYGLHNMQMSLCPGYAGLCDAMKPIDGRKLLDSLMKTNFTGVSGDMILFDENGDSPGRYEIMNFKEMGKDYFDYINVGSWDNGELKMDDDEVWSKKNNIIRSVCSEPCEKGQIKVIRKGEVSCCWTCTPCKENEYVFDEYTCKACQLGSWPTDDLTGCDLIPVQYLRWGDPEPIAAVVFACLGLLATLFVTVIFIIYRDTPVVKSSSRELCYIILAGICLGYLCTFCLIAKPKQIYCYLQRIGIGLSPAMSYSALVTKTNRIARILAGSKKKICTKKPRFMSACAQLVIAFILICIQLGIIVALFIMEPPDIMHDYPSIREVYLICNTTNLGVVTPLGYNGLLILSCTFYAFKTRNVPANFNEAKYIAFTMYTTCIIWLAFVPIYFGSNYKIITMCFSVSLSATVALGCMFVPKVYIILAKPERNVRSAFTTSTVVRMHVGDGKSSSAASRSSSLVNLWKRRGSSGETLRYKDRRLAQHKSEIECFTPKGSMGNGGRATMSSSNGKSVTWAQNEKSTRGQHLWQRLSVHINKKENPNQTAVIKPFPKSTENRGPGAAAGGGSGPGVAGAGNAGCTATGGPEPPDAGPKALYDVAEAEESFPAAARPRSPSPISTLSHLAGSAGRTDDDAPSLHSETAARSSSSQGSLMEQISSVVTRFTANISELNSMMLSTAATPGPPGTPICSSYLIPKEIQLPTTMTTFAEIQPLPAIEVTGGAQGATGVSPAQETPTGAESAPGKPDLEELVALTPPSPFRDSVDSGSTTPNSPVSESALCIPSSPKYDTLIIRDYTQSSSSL

[4] = target: T1, Cytochrome P450 1A2 (Homo sapiens, UniProt P05177); assay: Inhibition of CYP1A2 (unknown origin); assay type: ADME
T1 sequence (P05177 whole entry): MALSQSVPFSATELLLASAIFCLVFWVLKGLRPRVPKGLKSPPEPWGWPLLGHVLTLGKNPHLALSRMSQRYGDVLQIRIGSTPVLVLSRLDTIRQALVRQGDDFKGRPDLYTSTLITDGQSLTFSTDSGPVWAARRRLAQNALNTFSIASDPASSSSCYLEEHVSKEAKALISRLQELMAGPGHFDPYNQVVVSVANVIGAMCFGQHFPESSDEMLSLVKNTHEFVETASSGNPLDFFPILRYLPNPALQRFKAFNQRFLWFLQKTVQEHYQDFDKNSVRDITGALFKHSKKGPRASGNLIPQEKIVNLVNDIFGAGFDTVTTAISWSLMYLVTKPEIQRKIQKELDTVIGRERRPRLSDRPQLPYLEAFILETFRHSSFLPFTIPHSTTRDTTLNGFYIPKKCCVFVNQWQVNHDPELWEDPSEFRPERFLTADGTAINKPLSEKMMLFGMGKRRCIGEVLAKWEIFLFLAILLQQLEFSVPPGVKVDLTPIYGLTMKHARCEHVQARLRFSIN

[5] = target: Metabotropic glutamate receptor 5 (Rattus norvegicus) (UniProt P31424); assay: Displacement of [3H]MPEP from mGluR5 receptor in Sprague-Dawley rat cortical homogenate after 1 hr by liquid scintillation spectrometric analysis
[6] = target: Cytochrome P450 2C9 (Homo sapiens, UniProt P11712); assay: Inhibition of CYP2C9 (unknown origin); assay type: ADME
Cytochrome P450 2C9, sequence (P11712 whole entry): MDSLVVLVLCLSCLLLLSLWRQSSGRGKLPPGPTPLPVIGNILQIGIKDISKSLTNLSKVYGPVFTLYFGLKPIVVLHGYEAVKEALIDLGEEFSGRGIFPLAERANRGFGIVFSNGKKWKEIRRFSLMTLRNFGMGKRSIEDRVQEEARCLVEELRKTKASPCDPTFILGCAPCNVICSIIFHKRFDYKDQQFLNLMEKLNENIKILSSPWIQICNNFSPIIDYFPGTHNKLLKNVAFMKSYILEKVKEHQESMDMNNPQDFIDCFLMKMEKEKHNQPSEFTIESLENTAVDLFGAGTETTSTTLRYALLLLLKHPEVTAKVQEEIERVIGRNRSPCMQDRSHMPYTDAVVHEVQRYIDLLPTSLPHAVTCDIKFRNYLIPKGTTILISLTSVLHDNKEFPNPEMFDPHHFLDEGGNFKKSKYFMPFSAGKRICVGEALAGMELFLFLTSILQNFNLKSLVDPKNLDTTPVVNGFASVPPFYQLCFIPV

[7] = target: Cytochrome P450 2D6 (Homo sapiens, UniProt P10635); assay: Inhibition of CYP2D6 (unknown origin); assay type: ADME
Cytochrome P450 2D6, sequence (P10635 whole entry): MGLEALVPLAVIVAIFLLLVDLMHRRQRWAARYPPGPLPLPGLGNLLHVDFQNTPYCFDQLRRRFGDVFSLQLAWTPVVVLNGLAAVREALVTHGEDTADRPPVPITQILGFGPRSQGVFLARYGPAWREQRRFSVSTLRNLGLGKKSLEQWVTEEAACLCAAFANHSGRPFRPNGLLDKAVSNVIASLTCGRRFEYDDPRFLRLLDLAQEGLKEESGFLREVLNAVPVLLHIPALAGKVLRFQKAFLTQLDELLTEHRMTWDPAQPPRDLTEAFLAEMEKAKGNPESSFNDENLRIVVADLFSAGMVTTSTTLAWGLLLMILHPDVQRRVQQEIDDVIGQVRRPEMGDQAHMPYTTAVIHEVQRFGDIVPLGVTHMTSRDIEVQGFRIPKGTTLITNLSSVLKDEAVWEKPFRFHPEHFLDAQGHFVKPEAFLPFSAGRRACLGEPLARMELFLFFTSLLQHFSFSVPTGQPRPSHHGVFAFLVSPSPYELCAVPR

[8] = Kinetic solubility of the compound in DMSO at pH 7.4; assay type: physicochemical; settings: read-out: Kinetic_solubility
[9] = Intrinsic clearance in human microsomes measured per mg of protein; assay type: ADME, Microsome
[10] = Intrinsic clearance in rat microsomes measured per mg of protein; assay type: ADME, Microsome
[11] = Kinetic solubility of the compound in DMSO at pH 1; assay type: physicochemical; settings: read-out: Kinetic_solubility
[12] = tested on: Plasma; assay: Metabolic stability in rat plasma matrix; assay type: ADME, cell-free
[13] = target: Metabotropic glutamate receptor 5 (Rattus norvegicus) (UniProt P31424); assay: Partial negative allosteric modulation of rat mGluR5 receptor expressed in HEK293 cells assessed as intracellular calcium flux after 170 seconds by FLIPR assay relative to control; assay type: functional, cell-based

Compound: Nc1ccc(NC(=O)c2cc3n(n2)CCCC3)nc1
IC50 ([1]; hek293): Not Active

Compound: c1ccc(COc2cc3n(n2)CCCC3)nc1
IC50 ([1]; read-out: IC50): 2500 nM

Compound: Clc1ccc(COc2cc3n(n2)CCCC3)nc1
IC50 ([1]; read-out: IC50): 1550 nM

Compound: N#Cc1ccc(CC(=O)c2cc3n(n2)CCCC3)nc1
INH [2]: > 10 µM
inhibition [3]: > 99%
INH [4]: > 10 µM
INH [5]: 139 nM
INH [6]: > 10 µM
INH [7]: > 10 µM
solubility kinetic [8]: 30 µg/mL (≈ 113 µM)
microsomal CLint [9]: 46 µL/min/mg
microsomal CLint [10]: 108 µL/min/mg
IC50 ([1]; read-out: IC50): 53 nM
solubility kinetic [11]: 80 µg/mL (≈ 300 µM)

Compound: COc1cccc(NC(=O)c2cc3n(n2)CCCC3)n1
IC50 ([1]; hek293): Not Active

Compound: O=C(Nc1ccc(F)cn1)c1cc2n(n1)CCCC2
INH [2]: > 10 µM
inhibition [3]: > 99%
INH [4]: > 10 µM
INH [5]: 166 nM
Stability [12]: Unstable
INH [6]: > 10 µM
INH [7]: > 10 µM
solubility kinetic [8]: 40 µg/mL (≈ 154 µM)
microsomal CLint [9]: 31 µL/min/mg
IC50 ([1]; read-out: IC50): 60 nM
solubility kinetic [11]: 100 µg/mL (≈ 384 µM)

Compound: N#Cc1cccnc1NC(=O)c1cc2n(n1)CCCC2
IC50 ([1]; hek293): Not Active

Compound: O=C(Nc1cccc(F)n1)c1cc2n(n1)CCCC2
IC50 ([1]; read-out: IC50): 4740 nM

Compound: COc1cccnc1NC(=O)c1cc2n(n1)CCCC2
IC50 ([1]; hek293): Not Active

Compound: N#Cc1ccnc(NC(=O)c2cc3n(n2)CCCC3)c1
IC50 ([1]; hek293): Not Active

Compound: Cc1cccc(COc2cc3n(n2)CCCC3)c1
IC50 ([1]; read-out: IC50): 769 nM

Compound: N#Cc1cccc(COc2cc3n(n2)CCCC3)c1
IC50 [13]: 451 nM

Compound: Cc1cc(C(=O)Nc2ccc(C#N)cn2)nn1C
inhibition [3]: > 99%
microsomal CLint [9]: < 5 µL/min/mg
microsomal CLint [10]: < 5 µL/min/mg
IC50 ([1]; read-out: IC50): 2620 nM

Compound: Clc1ccnc(COc2cc3n(n2)CCCC3)c1
IC50 ([1]; read-out: IC50): > 10000 nM

Compound: N#Cc1ccccc1COc1cc2n(n1)CCCC2
IC50 ([1]; hek293): Not Active

Compound: O=C(Nc1ccccn1)c1cc2n(n1)CCCC2
IC50 ([1]; read-out: IC50): 364 nM

Compound: N#Cc1ccc(CC(=O)c2nn3c(c2C(F)(F)F)CCCC3)nc1
IC50 ([1]; read-out: IC50): 7180 nM

Compound: Nc1cccnc1NC(=O)c1cc2n(n1)CCCC2
IC50 ([1]; read-out: IC50): > 10000 nM

Other lines, results leading:

IC50 ([1]; read-out: IC50): 3990 nM
Compound: FC(F)(F)c1cccc(-c2cc3n(n2)CCCC3)c1

IC50 ([1]; read-out: IC50): 5900 nM
Compound: Clc1cccc(COc2cc3n(n2)CCCC3)n1

inhibition [3]: > 99%
INH [4]: < 0.75 µM
INH [5]: 401 nM
solubility kinetic [8]: 20 µg/mL (≈ 85.9 µM)
microsomal CLint [9]: 386 µL/min/mg
microsomal CLint [10]: 384 µL/min/mg
IC50 ([1]; read-out: IC50): 77 nM
solubility kinetic [11]: 110 µg/mL (≈ 473 µM)
Compound: Clc1cccc(-c2cc3n(n2)CCCC3)c1

IC50 ([1]; read-out: IC50): > 10000 nM
Compound: N#Cc1ccc(-c2cc3n(n2)CCCC3)nc1

IC50 ([1]; read-out: IC50): 1570 nM
Compound: Fc1cccc(-c2cc3n(n2)CCCC3)c1

IC50 ([1]; read-out: IC50): 1520 nM
Compound: Clc1cccc(-c2cc3n(n2)CCCC3)n1

IC50 ([1]; read-out: IC50): 4230 nM
Compound: Clc1ccc(-c2cc3n(n2)CCCC3)cc1

IC50 ([1]; read-out: IC50): 3080 nM
Compound: Cc1ccnc(-c2cc3n(n2)CCCC3)c1

IC50 ([1]; read-out: IC50): 669 nM
Compound: Clc1ccc(-c2cc3n(n2)CCCC3)nc1
